Values after ≈ are worked out from the molar mass of the structure shown. Like-named read-outs stand apart in the source and are kept apart here.
Tests used:
B.subtilis pol IIIC = B.subtilis pol IIIC (Bacillus subtilis, UniProt P13267); assay: biochemical
Protocol: DNA pol activity was assayed as described in Barnes et al., Nuc. Acids Res., 6:1203-19 (1979), using activated “nicked” calf-thymus DNA as template primer, 10 pM [^3H-methyl]-dTTP as the labelled dNTP substrate, and dATP, dCTP, and dGTP at 25 μM each.
Inhibitory activity of the compounds is determined by measuring the ability of the agent to inhibit enzyme-catalyzed incorporation of [^3H]-dTMP into nicked calf thymus DNA in the absence of the competitor dGTP or dATP (“truncated assay”) (see G. E. Wright and N. C. Brown, Inhibition of Bacillus subtilis DNA Polymerase III by Arylhydrazinopyrimidines: Novel Properties of 2-Thiouracil Derivatives, Biochim. Biophys. Acta 432:37-48 (1976)). Purified pol IIIC is added to a buffered solution containing Mg^2+, DTT, glycerol, nicked calf thymus DNA, saturating concentrations of dATP, dCTP, dTTP and [^3H]-dTTP. Reaction mixtures are incubated at 30° C. for 10 minutes, quenched and filtered, and radioactivity in the acid-insoluble material measured by scintillation counting. Experiments are done in triplicate. Inhibitors are assayed by addition of several dilutions of a stock solution of inhibitor (DMSO or water, depending on solubility) before enzyme addition. […] The truncated assay, i.e. exclusion of the competitive substrate dGTP or dATP, depending upon whether the compound is a uracil derivative or an isocytosine derivative, respectively, allows for the direct determination of apparent inhibitor constants (K,) in this assay system.

E. fecalis = assay: Inhibition of bacterial growth on agar plates (MIC); type: cell-based; settings: 37° C., 24 hours
Protocol: (§1) Each compound is assayed against a panel of Bacillus, Enterococcus and Staphylococcus, and a Gram-negative bacterium Escherichia coli as negative control, grown in appropriate plate media solidified with 1.3% agar-agar. Stock solutions of the compounds in dimethylsulfoxide or water, depending on solubility, are added to sterile medium at a temperature of 60° C. […] One tenth mL of diluted bacteria containing 500-1000 colony-forming units (CFU) are plated and spread, and the plates incubated at 37° C. for 24 hours. MIC (minimum inhibitory concentration) is equivalent to the lowest concentration at which growth, i.e. colony formation, is not observed.

E. fecium = assay: as above; type: cell-based; settings: 37° C., 24 hours
Protocol: as §1

B. subtilis = assay: as above; type: cell-based; settings: Bacillus subtilis, 37° C., 24 hours
Protocol: as §1

S.aureus (Smith) = assay: as above; type: cell-based; settings: Staphylococcus aureus, 37° C., 24 hours
Protocol: as §1

[1] = truncated assay, apparent inhibitor constant, read-out: K1 B.subtilis pol IIIC

Chain of B.subtilis pol IIIC (P13267 whole entry): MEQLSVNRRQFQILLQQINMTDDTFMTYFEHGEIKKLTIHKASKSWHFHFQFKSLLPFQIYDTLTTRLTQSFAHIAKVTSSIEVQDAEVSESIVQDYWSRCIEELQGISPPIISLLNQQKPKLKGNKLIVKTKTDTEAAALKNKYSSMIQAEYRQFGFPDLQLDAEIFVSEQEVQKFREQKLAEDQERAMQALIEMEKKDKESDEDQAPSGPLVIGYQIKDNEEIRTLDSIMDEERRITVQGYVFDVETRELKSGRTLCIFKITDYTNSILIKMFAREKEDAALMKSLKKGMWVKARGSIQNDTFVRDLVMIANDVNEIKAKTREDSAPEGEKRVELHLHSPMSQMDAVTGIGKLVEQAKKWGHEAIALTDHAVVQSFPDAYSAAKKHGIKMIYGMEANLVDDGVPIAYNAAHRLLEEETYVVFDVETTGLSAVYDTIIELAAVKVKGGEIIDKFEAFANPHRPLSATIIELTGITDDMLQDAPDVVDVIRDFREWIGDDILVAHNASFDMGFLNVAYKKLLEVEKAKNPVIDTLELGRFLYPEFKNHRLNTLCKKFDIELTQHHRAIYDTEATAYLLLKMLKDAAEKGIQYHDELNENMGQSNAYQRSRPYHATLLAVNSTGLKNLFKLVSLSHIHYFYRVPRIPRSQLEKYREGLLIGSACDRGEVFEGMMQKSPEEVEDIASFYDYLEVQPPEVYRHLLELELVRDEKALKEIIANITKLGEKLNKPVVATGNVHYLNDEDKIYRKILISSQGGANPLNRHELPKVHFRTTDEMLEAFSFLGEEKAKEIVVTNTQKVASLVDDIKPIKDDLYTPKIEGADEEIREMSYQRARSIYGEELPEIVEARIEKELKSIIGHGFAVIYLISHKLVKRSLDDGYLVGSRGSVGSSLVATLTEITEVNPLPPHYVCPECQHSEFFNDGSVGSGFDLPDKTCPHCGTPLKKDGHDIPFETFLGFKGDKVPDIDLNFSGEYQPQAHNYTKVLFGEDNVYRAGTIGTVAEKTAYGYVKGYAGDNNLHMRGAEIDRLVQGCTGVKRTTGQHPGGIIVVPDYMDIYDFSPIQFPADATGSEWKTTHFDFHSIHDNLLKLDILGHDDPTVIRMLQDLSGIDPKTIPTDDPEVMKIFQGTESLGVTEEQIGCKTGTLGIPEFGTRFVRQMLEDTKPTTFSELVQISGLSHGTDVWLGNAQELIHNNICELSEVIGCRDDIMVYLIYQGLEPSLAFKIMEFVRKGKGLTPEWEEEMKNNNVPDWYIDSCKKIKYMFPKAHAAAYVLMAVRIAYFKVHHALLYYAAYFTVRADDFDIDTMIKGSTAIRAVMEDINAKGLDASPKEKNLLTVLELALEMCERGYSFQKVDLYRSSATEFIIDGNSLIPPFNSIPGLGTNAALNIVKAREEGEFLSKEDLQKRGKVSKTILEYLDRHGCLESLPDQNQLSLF

| Compound | Ki (B.subtilis pol IIIC) [nM] | MIC (E. fecalis) [µg/mL] | MIC (E. fecium) [µg/mL] | MIC (B. subtilis) [µg/mL] | MIC (S.aureus (Smith)) [µg/mL] | Ki (B.subtilis pol IIIC; [1]) [nM] |
| --- | --- | --- | --- | --- | --- | --- |
| CCc1cc(Nc2cc(=O)n(CCOCCOC)c(=O)[nH]2)ccc1C [Compound 12, 3-[2-(2-Methoxyethoxy)ethyl]-6-(3-ethyl-4-methylanilino)uracil] | 45 | 5 (≈ 14.4 µM) | 5 (≈ 14.4 µM) | 2.5 (≈ 7.2 µM) | 2.5 (≈ 7.2 µM) | – |
| CCc1cc(Nc2cc(=O)n(CCOCCOCc3ccccc3)c(=O)[nH]2)ccc1C [Compound 5, 3-[2-(2-Benzyloxyethoxy)ethyl]-6-(3-ethyl-4-methylanilino)uracil] | 56 | 5 (≈ 11.8 µM) | 10 (≈ 23.6 µM) | < 1.25 | 5 (≈ 11.8 µM) | – |
| CCc1cc(Nc2cc(=O)n(CCCCN3CC=C(c4ccc(C)c(C)c4)CC3)c(=O)[nH]2)ccc1C [Compound 81] | 34 | 10 (≈ 20.5 µM) | 10 (≈ 20.5 µM) | 1.25 (≈ 2.57 µM) | 20 (≈ 41.1 µM) | – |
| CCc1cc(Nc2cc(=O)n(CCCCOC(=O)N3CCOCC3)c(=O)[nH]2)ccc1C [Compound 47, 3-[4-(N-morpholinocarbonyloxy)butyl]-6-(3-ethyl-4-methylanilino)uracil] | 71 | 5 (≈ 11.6 µM) | 5 (≈ 11.6 µM) | < 1.25 | 5 (≈ 11.6 µM) | – |
| CCc1cc(Nc2cc(=O)n(CCCCN3CC=C(c4ccc5c(c4)OCO5)CC3)c(=O)[nH]2)ccc1C [Compound 80, 3-{4-[4-(3,4-dioxomethylenephenyl-1,2,3,6-tetrahydropyridinyl)]butyl}-6-(3-ethyl-4-methylanilino)uracil] | 24 | 5 (≈ 9.95 µM) | 5 (≈ 9.95 µM) | 2.5 (≈ 4.97 µM) | 10 (≈ 19.9 µM) | – |
| CCc1cc(Nc2cc(=O)n(CCCCN3CCN(C(=O)c4ccco4)CC3)c(=O)[nH]2)ccc1C [Compound 40, 3-{4-[4-(2-Furoyl)piperazino]butyl}-6-(3-ethyl-4-methylanilino)uracil] | – | 5 (≈ 10.4 µM) | 10 (≈ 20.9 µM) | 5 (≈ 10.4 µM) | 5 (≈ 10.4 µM) | 43 |
| CCc1cc(Nc2cc(=O)n(CCN3CCOCC3)c(=O)[nH]2)ccc1C [Compound 17, 3-[2-(N-morpholino)ethyl]-6-(3-ethyl-4-methylanilino)uracil] | 90 | 5 (≈ 13.9 µM) | 2.5 (≈ 6.97 µM) | < 1.25 | 5 (≈ 13.9 µM) | – |
| CCc1cc(Nc2cc(=O)n(CCCCNC(=O)CCl)c(=O)[nH]2)ccc1C [Compound 50, 3-{4-[(chloromethylcarbonyl)amino]butyl}-6-(3-ethyl-4-methylanilino)uracil] | 35 | 5 (≈ 12.7 µM) | 10 (≈ 25.5 µM) | 2.5 (≈ 6.36 µM) | 5 (≈ 12.7 µM) | – |
| CCc1cc(Nc2cc(=O)n(CCCCN3CCC(O)(c4ccc(Cl)c(C(F)(F)F)c4)CC3)c(=O)[nH]2)ccc1C [Compound 37, 3{[4-(3-Trifluoromethylphenyl-4-chloro-)-4-hydroxypiperidino]butyl}-6-(3-ethyl-4-methylanilino)uracil] | – | 2.5 (≈ 4.32 µM) | 2.5 (≈ 4.32 µM) | 1.25 (≈ 2.16 µM) | 2.5 (≈ 4.32 µM) | 32 |
| CCc1cc(Nc2cc(=O)n(CCCCOC(C)=O)c(=O)[nH]2)ccc1C [Compound 22, 3-(4-Acetoxybutyl)-6-(3-ethyl-4-methylanilino)uracil] | 58 | 5 (≈ 13.9 µM) | 5 (≈ 13.9 µM) | 1.25 (≈ 3.48 µM) | 2.5 (≈ 6.96 µM) | – |
| CCc1cc(Nc2cc(=O)n(CCCCCCO)c(=O)[nH]2)ccc1C [Compound 27, 3-(6-Hydroxyhexyl)-6-(3-ethyl-4-methylanilino)uracil] | 49 | 2.5 (≈ 7.24 µM) | 5 (≈ 14.5 µM) | < 1.25 | 2.5 (≈ 7.24 µM) | – |
| CCc1cc(Nc2cc(=O)n(CCCCCN3CCc4c([nH]c5ccc(OC)cc45)C3C(=O)O)c(=O)[nH]2)ccc1C (stereo not drawn) [Compound 68, 3-[5-(1-carboxy-6-methoxy-2,3,4,9-tetrahydro-1H-β-carboline-2-yl)pentyl]-6-(3-ethyl-4-methylanilino)uracil] | 288 | 80 (≈ 143 µM) | 80 (≈ 143 µM) | 20 (≈ 35.7 µM) | 40 (≈ 71.5 µM) | – |
